# Test system: 521955-158-R2-J5-PDC complex spheroid growth, % test/control
# Test: Anticancer human tumor 521955-158-R2-J5-PDC patient-derived pancreatic carcinoma cell line growth inhibition [Asc]
# Conditions: for IC50: curve of first compound; for viability, T/C: stronger effect = lower value
# Experimental: Multicellular complex tumor spheroid response to apoptosis pathway targeting inhibitors Alrizomadlin, Pelcitoclax, and Dasminapant in combination with a variety of drugs and investigational agents in selected tumor cell lines
# The MDM2 inhibitor alrizomadlin, the Bcl-2/Bcl-xL inhibitor pelcitoclax, and the IAPs inhibitor dasminapant were evaluated both individually and in combination with standard of care and investigational anticancer small molecules within a complex spheroid model of solid tumors. . Complex spheroids include a stromal component modeled by human endothelial cells (HUVEC) and fibroblasts modeled by human mesenchymal stem cells (MSCs). The concentration ranges selected for each drug and investigational agent were based upon clinically achievable concentrations if the clinical Cmax of the agent was known.
# Compounds. The drugs and investigational agents: alrizomadlin (APG-115; NSC831270), pelcitoclax (APG-1252; NSC835773), dasminapant (APG-1387;NSC834197), TAK-243 (NSC785004), copanlisib (NSC809693), olaparib (NSC753686), talazoparib (NSC767125), cobimetinib (NSC 768068), eltanexor (KPT-8602, NSC 794443), abemaciclib (NSC 768073), sotorasib (NSC818433), adagrasib (NSC 831453), MRTX-1133 (NSC 836407), Iadademestat (ORY1001, NSC 806812), and RMC-4630 (NSC839698), were obtained from the NCI Developmental Therapeutics Program Chemical Repository. The FDA-approved anticancer drug set is available from the Developmental Therapeutics Program at https://dtp.cancer.gov/organization/dscb/obtaining/available plates.htm. […] The stock solutions were prepared in dimethyl sulfoxide (DMSO, Sigma-Aldrich, St. Louis, MO, cat. D2650) at 800-fold the tested concentration and stored at -70 degrees C prior to their use. All drugs and investigational agents were tested over a range starting from a high concentration at or near the clinical Cmax and decreasing in half-log increments. If the clinical Cmax for an agent had not been determined, the highest concentration tested was 10 microM.
# The patient-derived cancer (PDC) cell lines include five colon adenocarcinomas: 186277-243-T-J2-PDC, 616215-338-R-J1-PDC, 439559-082-T-J2-PDC, 463943-066-T-J2-PDC, and 519858-162-T-J1-PDC; three pancreatic carcinomas: 323965-272-R-J2-PDC, 521955-158-R6-J3-PDC, and 521955-158-R2-J5-PDC; two uterine sarcomas: 327498-152-R-J2-PDC and 993429-296-R-J1-PDC; two rhabdomyosarcomas: 755483-174-R-J1-PDC and 772245-204-R-J1-PDC; two soft tissue sarcomas: 126254-015-R-J1-PDC and 494315-158-R-J1-PDC; two malignant fibrous histiocytomas: 317291-083-R-J1-PDC and 596521-263-R-J1-PDC; two breast carcinomas: 171881-019-R-J1-PDC and 885512-296-R-J2-PDC; and one ovarian carcinoma: 6556581-035-R-J-PDC were obtained from the NCI PDMR, (https://pdmr.cancer.gov). The established cell lines HSSY-2 synovial sarcoma (RRID:CVCL 8719), SYO-1 synovial sarcoma (RRID:CVCL_7146), MPNST malignant peripheral neural sheath tumor were obtained from the Sloan Kettering Institute. The following established cell lines were purchased from the American Type Culture Collection (ATCC, Manassas, VA), Sor the received from the NCI repository:, PANC-1 pancreatic carcinoma (CRL-1469, RRID:CVCL_0480), OVCAR-5 ovarian carcinoma (RRID:CVCL_1628), OVCAR-8 ovarian carcinoma (RRID:CVCL_1629), , MCF-7 breast carcinoma (CRL-12584, RRID:CVCL_0031), MDA-MB-231 breast carcinoma (CRL-12532, RRID:CVCL_0062), NCI-H1876 small cell lung carcinoma (CRL-5902, RRID:CVCL_1503), NCI-H510A small cell lung carcinoma (HTB-184, RRID:CVCL_1565), NCI-H1417 (CRL-5869, RRID:CVCL_1469), and NCI-H196 small cell lung carcinoma (CRL-5823, RRID:CVCL_1509). Dr. Peter Houghton (Greehey Children's Cancer Research Institute, University of Texas Health Science Center, San Antonio, TX) provided Rh-18 rhabdomyosarcoma (RRID:CVCL_1659). Pooled donor human umbilical vein endothelial cells (HUVEC, Lonza, cat. CC-2519) and human mesenchymal stem cells (hMSC, Lonza, cat. PT-2501) were purchased from Lonza (Walkersville, MD).
# Cell Culture. […]
# [1] = second compound 0.03 µM, first compound 0.0316 µM
# [2] = second compound 0.03 µM, first compound 0.1 µM
# [3] = second compound 0.0949 µM, first compound 0.0316 µM
# [4] = second compound 0.0949 µM, first compound 0.1 µM
# [5] = second compound 0.3 µM, first compound 0.0316 µM
# [6] = second compound 0.3 µM, first compound 0.1 µM
# [7] = second compound 0.949 µM, first compound 0.0316 µM
# [8] = second compound 0.949 µM, first compound 0.1 µM
# [9] = second compound 3 µM, first compound 0.0316 µM
# [10] = second compound 3 µM, first compound 0.1 µM
# 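Also: spheroids exposed to agents for 7 days before readout.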
# 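For viability, T/C in this document: 100% = DMSO vehicle control viability.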
structure (smiles),measurement,setting,value
Cn1ncnc1[C@H]1c2n[nH]c(=O)c3cc(F)cc(c23)N[C@@H]1c1ccc(F)cc1 + CCN1C(C(=O)NC23CCC(C(=O)O)(CC2)CC3)C(c2cccc(Cl)c2F)C2(C(=O)Nc3cc(Cl)ccc32)C12CCCCC2,IC50,second compound 0.03 µM,> 0.1 µM
same,IC50,second compound 0.0949 µM,> 0.1 µM
same,IC50,second compound 0.3 µM,> 0.1 µM
same,IC50,second compound 0.949 µM,> 0.1 µM
same,IC50,second compound 3 µM,> 0.1 µM
same,"viability, T/C","second compound 0.03 µM, first compound 0.000316 µM",142%
same,"viability, T/C","second compound 0.03 µM, first compound 0.001 µM",56.8%
same,"viability, T/C","second compound 0.03 µM, first compound 0.00316 µM",100%
same,"viability, T/C","second compound 0.03 µM, first compound 0.01 µM",57.9%
same,"viability, T/C",[1],76.7%
same,"viability, T/C",[2],55.6%
same,"viability, T/C","second compound 0.0949 µM, first compound 0.000316 µM",104%
same,"viability, T/C","second compound 0.0949 µM, first compound 0.001 µM",77.5%
same,"viability, T/C","second compound 0.0949 µM, first compound 0.00316 µM",90.5%
same,"viability, T/C","second compound 0.0949 µM, first compound 0.01 µM",71.7%
same,"viability, T/C",[3],66.6%
same,"viability, T/C",[4],49.4%
same,"viability, T/C","second compound 0.3 µM, first compound 0.000316 µM",90.6%
same,"viability, T/C","second compound 0.3 µM, first compound 0.001 µM",100%
same,"viability, T/C","second compound 0.3 µM, first compound 0.00316 µM",101%
same,"viability, T/C","second compound 0.3 µM, first compound 0.01 µM",110%
same,"viability, T/C",[5],78%
same,"viability, T/C",[6],67.8%
same,"viability, T/C","second compound 0.949 µM, first compound 0.000316 µM",116%
same,"viability, T/C","second compound 0.949 µM, first compound 0.001 µM",135%
same,"viability, T/C","second compound 0.949 µM, first compound 0.00316 µM",107%
same,"viability, T/C","second compound 0.949 µM, first compound 0.01 µM",98.9%
same,"viability, T/C",[7],94.2%
same,"viability, T/C",[8],73%
same,"viability, T/C","second compound 3 µM, first compound 0.000316 µM",146%
same,"viability, T/C","second compound 3 µM, first compound 0.001 µM",116%
same,"viability, T/C","second compound 3 µM, first compound 0.00316 µM",122%
same,"viability, T/C","second compound 3 µM, first compound 0.01 µM",130%
same,"viability, T/C",[9],122%
same,"viability, T/C",[10],86.6%
O=C(c1cc(Cc2n[nH]c(=O)c3ccccc23)ccc1F)N1CCN(C(=O)C2CC2)CC1 + CCN1C(C(=O)NC23CCC(C(=O)O)(CC2)CC3)C(c2cccc(Cl)c2F)C2(C(=O)Nc3cc(Cl)ccc32)C12CCCCC2,IC50,second compound 0.03 µM,> 10 µM
same,IC50,second compound 0.0949 µM,> 10 µM
same,IC50,second compound 0.3 µM,> 10 µM
same,IC50,second compound 0.949 µM,> 10 µM
same,IC50,second compound 3 µM,> 10 µM
same,"viability, T/C",[1],101%
same,"viability, T/C",[2],113%
same,"viability, T/C","second compound 0.03 µM, first compound 0.316 µM",68.7%
same,"viability, T/C","second compound 0.03 µM, first compound 1 µM",91.9%
same,"viability, T/C","second compound 0.03 µM, first compound 3.16 µM",86.1%
same,"viability, T/C","second compound 0.03 µM, first compound 10 µM",63%
same,"viability, T/C",[3],114%
same,"viability, T/C",[4],102%
same,"viability, T/C","second compound 0.0949 µM, first compound 0.316 µM",99%
same,"viability, T/C","second compound 0.0949 µM, first compound 1 µM",73.2%
same,"viability, T/C","second compound 0.0949 µM, first compound 3.16 µM",74.2%
same,"viability, T/C","second compound 0.0949 µM, first compound 10 µM",74.5%
same,"viability, T/C",[5],96.9%
same,"viability, T/C",[6],131%
same,"viability, T/C","second compound 0.3 µM, first compound 0.316 µM",104%
same,"viability, T/C","second compound 0.3 µM, first compound 1 µM",87.2%
same,"viability, T/C","second compound 0.3 µM, first compound 3.16 µM",75.2%
same,"viability, T/C","second compound 0.3 µM, first compound 10 µM",66.8%
same,"viability, T/C",[7],123%
same,"viability, T/C",[8],124%
same,"viability, T/C","second compound 0.949 µM, first compound 0.316 µM",113%
same,"viability, T/C","second compound 0.949 µM, first compound 1 µM",113%
same,"viability, T/C","second compound 0.949 µM, first compound 3.16 µM",93.3%
same,"viability, T/C","second compound 0.949 µM, first compound 10 µM",88.8%
same,"viability, T/C",[9],109%
same,"viability, T/C",[10],137%
same,"viability, T/C","second compound 3 µM, first compound 0.316 µM",135%
same,"viability, T/C","second compound 3 µM, first compound 1 µM",126%
same,"viability, T/C","second compound 3 µM, first compound 3.16 µM",106%
same,"viability, T/C","second compound 3 µM, first compound 10 µM",98%

# From PubChem BioAssay AID1963430 (Molecular Pharmacology Branch, DTP, NCI, 2024)
